Data published in patent US20260042854A1, “ANTI-GLP-1R ANTIBODIES AND USES THEREOF” (SCIWIND BIOSCIENCES USA CO., LTD, priority 2022, published 2026).

Assays:
humanized GLP-1R mice = experiment: IPGTT in humanized GLP-1R mice (exogenous GLP-1 added); type: in vivo, mouse; conditions: GLP-1 25 nmol/kg i.p. with glucose
Description: 10-week-old female humanized GLP-1R mice (25-28 g, Shanghai Model Organisms Center Inc.) were assigned into 5 groups, with 5 mice in each group, and each group was treated according to the scheme in Table 6. The antibody treatment groups were subcutaneously injected with antibody, while the other groups were subcutaneously injected with vehicle (PBS) once a week for 2 consecutive weeks. IPGTTs were performed one day after the administration. The first subcutaneous administration of the antibody was on Day 0, and the second subcutaneous administration was on Day 7.
The blood glucose levels of the mice before (0 min) and 15 min, 30 min, 60 min, 90 min, 120 min and 180 min after the administration of glucose were measured with blood glucose meter. The AUCs of the blood glucose-time curves of each mouse from 0 to 180 min were calculated with GraphPad Prism 9. […] Statistical differences were analyzed with One-way ANOVA. […]
10-week-old female humanized GLP-1R mice (25-28 g) were assigned into 5 groups, with 5 mice in each group, and each group was treated according to the scheme in Table 10. […] The blood glucose levels of the mice before (0 min) and 15 min, 30 min, 60 min, 90 min, 120 min and 180 min after the administration of glucose were measured with blood glucose meter. The AUCs of the blood glucose-time curves of each mouse were calculated with GraphPad Prism 9. […]

C57BL/6 mice = experiment: IPGTT in C57BL/6 mice (exogenous GLP-1 added); type: in vivo, mouse; conditions: GLP-1 25.0 nmol/kg i.p. with glucose
Description: 7-9-week-old male C57BL/6 mice (22-26 g) were assigned into 5 groups, with 5 mice in each group, and the mice in each group were treated according to the scheme shown in Table 6. The antibody treatment groups were given a single subcutaneous injection, and were fasted for 18 hours after the administration. […] The blood glucose levels of the mice before (0 min) and 15 min, 30 min. 60 min, 90 min, 120 min and 180 min after the administration of glucose were measured with blood glucose meter. The AUCs of the blood glucose-time curves of each mouse from 0 to 180 min were calculated with GraphPad Prism 9. The blood glucose levels and the AUCs were shown in Mean±SEM and the differences among groups were compared. Statistical differences were analyzed with One-way ANOVA. […] The significance markers were not shown in the line chart since they would overlap and be difficult to distinguish.

Mouse GLP-1R = target: T1, Mouse GLP-1R (Mus musculus, UniProt O35659); experiment: cAMP HTRF antagonism assay in HEK293 transfected with mouse GLP-1R; type: cell-based
T1 construct: expressed in transfected cells; host or cells: HEK293 (ATCC, CRL-1573)
T1 sequence (O35659 22-463): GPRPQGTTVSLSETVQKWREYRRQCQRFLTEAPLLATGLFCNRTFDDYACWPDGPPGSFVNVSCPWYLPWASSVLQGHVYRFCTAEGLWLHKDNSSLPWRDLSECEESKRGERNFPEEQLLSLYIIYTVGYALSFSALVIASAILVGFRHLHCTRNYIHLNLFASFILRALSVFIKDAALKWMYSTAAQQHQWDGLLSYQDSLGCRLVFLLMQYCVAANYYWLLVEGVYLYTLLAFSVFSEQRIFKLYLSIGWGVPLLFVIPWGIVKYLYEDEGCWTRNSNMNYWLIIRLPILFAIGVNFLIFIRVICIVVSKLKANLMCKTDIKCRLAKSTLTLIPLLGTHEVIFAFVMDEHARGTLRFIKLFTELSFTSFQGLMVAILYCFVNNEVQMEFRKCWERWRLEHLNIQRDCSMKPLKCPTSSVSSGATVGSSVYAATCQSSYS
Description: HEK293 cells (ATCC, cat no. CRL-1573) were transfected with GLP-1R_pcDNA3.1/G418 (+) plasmids which can transcribe the mRNA of human (NM_002062.5), monkey (JN033215.1) and mouse (NM_021332.2) GLP-1R polypeptide. […] The plate was further incubated at 37° C. for 120 minutes. Finally, the CAMP level was measured with cAMP HTRF kit (Cisbio, 62AM4PEB). […] The data were analyzed by four-parameter curve fitting with GraphPad Prism 9, and IC50 was calculated.

| Substance | effect of GLP-1 on blood glucose levels (in words) (humanized GLP-1R mice) | effect of GLP-1 on blood glucose levels (in words) (C57BL/6 mice) | antagonism of activation of mouse GLP-1R by GLP-1 (in words) (Mouse GLP-1R) |
| --- | --- | --- | --- |
| GLP-1: native GLP-1 (7-37aa, R&D Systems, cat no. 5374/1), agonist used to activate GLP-1R (HAEGTFTSDVSSYLEGQAAKEFIAWLVKGRG; Glucagon-like peptide 1(7-37); UniProt P01275 98-128, looked up) [reference compound] | can effectively lower the blood glucose levels | could lower blood glucose levels | – |
| exendin 9-39 [Avexitide, reference compound] | – | – | does antagonize the activation of mouse GLP-1R by GLP-1 |
